Patent US20220098228A1, “METHODS AND COMPOSITIONS FOR IMPROVING THE IMMUNE SYSTEM AND PROVIDING IMMUNO-PROTECTION” (Natreon, Inc., priority 2020, published 2022)
Marks after values point to notes of the source that are not given here.

Legend:
[1] = system: splenocytes; test: Cell viability of splenocytes, trypan blue exclusion, cyclophosphamide-induced immunosuppression (Example II); format: in vivo, Swiss albino mice; conditions: 10 mg/kg body weight p.o. 7 days + cyclophosphamide 250 mg/kg i.p.; Mean ± SD, n = 6
Procedure: (§1) The mice were acclimatized for one week in the laboratory conditions, before being used in the experiment. All experiments were conducted between 10.00 hr and 14.00 hr. Principles of laboratory animal care (NIH publication no. 85-23, revised 1985) were followed.
(§2) All test compounds (DBPs and DBP glycosides) were suspended in 0.3% of CMC (Carboxymethyl Cellulose) solutions of distilled water and were administered orally for 7 days by using an intubation canula. The volume of dose was 100 μl/10 g body weight. Cyclophosphamide was dissolved in distilled water and was injected (250 mg/kg, i.p.) on day one and volume of dose was 100 μl/10 g body weight. Control animals received equivalent volume of the vehicles CMC (0.3%) solutions only.
Spleen was collected. Single cell suspension was prepared by mincing and tapping the spleen fragments on stainless steel 200-mesh in ice cold phosphate buffer saline (PBS: 0.15M NaCl pH 7.4). Cell suspension was centrifuged at 2000 rpm for 10 minutes. The pellet was re-suspended in PBS and cell viability was confirmed by trypan blue exclusion method.

[2] = system: peritoneal macrophages; test: NBT reduction of peritoneal macrophages (Example III); format: in vivo, Swiss albino mice; conditions: for NBT reduction compared with cyclophosphamide treated mice: 3,8-(OH)2-DBP 50 mg/kg, combined 12 and 60 mg/kg; for NBT reduction compared with vehicle control: cyclophosphamide, 3-OH-DBP 2 and 10 mg/kg, combined 12 mg/kg
Procedure: (§3) Male and female Swiss albino mice (n=8; 4 from each gender) weighing approximately 25±5 g, were obtained from National Research Institute of Ayurveda for Drug Development (Govt. of India), Kolkata, and were housed in polypropylene cages at 22±3° C., relative air humidity of 45 to 55%, with 12.00 h light & dark cycle (lighting on from 6:00 AM to 6:00 PM). […] The mice were acclimatized for one week in the laboratory conditions, before being used in the experiment. All experiments were conducted between 10.00 h and 14.00 h. Principles of laboratory animal care (NIH publication no. 85-23, revised 1985) was followed.
(§4) Cyclophosphamide was dissolved in distilled water and the mice were administered a single exposure (250 mg/kg, i.p.) on day 1.
(§5) 3-OH-DBP, 3,8-(OH)2-DBP, and combined 3-OH-DBP+3,8-(OH)2-DBP were administered once daily for 7 days starting from day 1. Following 7 days of treatment the mice were anaesthetized and sacrificed under anaesthesia followed by collection of peritoneal macrophages and spleen (for splenocyte isolation).
(§6) Swiss albino mice were randomly divided into 8 Groups (n=8; 4 from each gender). […] (2:10) (12 mg/kg b.w., p.o.), Group VI mice were administered 3-OH-DBP (10 mg/kg b.w., p.o.), Group VII mice were administered 3,8-(OH)2-DBP (50 mg/kg b.w., p.o.), Group VIII mice were administered [3-OH-DBP+3,8-(OH)2-DBP] (10:50) (60 mg/kg b.w., p.o.).
(§7) All the animals were sacrificed under ether anesthesia and peritoneal macrophages were lavaged using ice cold phosphate buffer saline (PBS: 0.15 M NaCl; pH: 7.4). After centrifugation (3000 rpm×10 min) at 4° C., pellets were re-suspended in PBS and cell viability was confirmed by trypan blue exclusion assay.
Preparation of NBT solution: 0.2% NBT (nitroblue tetrazolium) in PBS (pH 7.4), 5% dextrose and HBSS. These three solutions were mixed in 6:2:4 ratios.
0.5 ml of NBT solution was added to 0.5 ml of peritoneal macrophages (1×10^6 cells/ml) in micro-centrifuge tube. This mixture was incubated at 37° C. for 2 hours. The cell suspension was centrifuged at 2000 rpm for 10 minutes. Supernatants were discarded and pellets were re-suspended in 1 ml of DMSO. The tubes were kept in boiling water bath for 10 minutes and then cooled and centrifuged at 2000 rpm for 10 minutes. The supernatants were collected and absorbance was measured at 515 nm.
(§8) Results were expressed in terms of mean±SEM (n=8; 4 from each gender). Data were subjected to one way ANOVA followed by Tukey's test using GraphPad Prism 4.0 software to establish statistical significance (*p<0.05, **p<0.01, ***p<0.001, where * refers to comparison with Group I vehicle control; #p<0.05, ##p<0.01, ###p<0.001, where #refers to comparison with Group II cyclophosphamide administration; ^ap<0.05, ^aap<0.01, ^aap<0.01, where a refers to comparison of Day 7 with Day 0).

[3] = mouse, in vivo
Procedure: as §3, §4, §5, §6, §8

[4] = system: peritoneal macrophages; test: NBT reduction assay in peritoneal macrophages, cyclophosphamide-induced immunosuppression (Example II); format: in vivo, Swiss albino mice; conditions: 10 mg/kg body weight p.o. 7 days + cyclophosphamide 250 mg/kg i.p.; Mean ± SD, n = 6
Procedure: as §1, §2
On day seven all the animals were sacrificed under ether anesthesia and peritoneal macrophages were lavaged using ice cold phosphate buffer saline (PBS: 0.15M NaCl pH-7.4). After centrifugation (3000 rpm×10 min) at 4° C. the pellet was re-suspended in PBS and cell viability was confirmed by trypan blue exclusion method. (Bala A, Haldar P K, Kar B, Naskar S and Mazumder U K, “Carbon tetrachloride: A hepatotoxin causes oxidative stress in murine peritoneal macrophage and peripheral blood lymphocyte cells” Immunopharmacol. and Immunotoxicol. 34(1): 157-162 (2012)).
Preparation of NBT solution: 0.2% NBT (nitroblue tetrazolium) in PB (Phosphate Buffer, pH 7.4), 5% dextrose and HBSS (Hank's balanced salt solution). The three solutions were mixed in 6:2:4 ratios. (Saxena A K, Singh K P, Srivastava S N, Shukla L J and Shanker R., “Immunomodulating effects of caffeine in rodents” Ind J Exptl Biol. 22: 298-301 (1984)).
Method: 0.5 ml of NBT solution was added to 0.5 ml of peritoneal macrophages (1×10^6 cells/ml) in a micro-centrifuge tube. This mixture was incubated at 37° C. for 45 minutes. The cell suspension was centrifuged at 1500 rpm for 10 minutes. Supernatant was discarded and pellet was re-suspended in 2 ml of DMSO. The tubes were kept in a boiling water bath for 10 minutes. The tubes were again centrifuged at 1500 rpm for 10 minutes. The supernatant was collected, and absorbance was measured at 515 nm.

[5] = system: splenocytes; test: Splenocyte viability, trypan blue exclusion (Example III); format: in vivo, Swiss albino mice; conditions: for % Viability Day7, splenocyte viability: Day 7
Procedure: as §3, §4, §5, §6
Spleens were collected and single cell suspension was prepared by mincing and tapping the spleen fragments on stainless steel 200-mesh in ice cold phosphate buffer saline (PBS: 0.15M NaCl; pH: 7.4). Cell suspensions were centrifuged at 2000 rpm for 10 minutes.
as §8

[6] = system: peritoneal macrophages; test: Peritoneal macrophage viability, trypan blue exclusion (Example III); format: in vivo, Swiss albino mice
Procedure: as §3, §4, §5, §6, §7, §8

[7] = female mice, 10 mg/kg p.o. + cyclophosphamide 250 mg/kg i.p.
[8] = female mice, 50 mg/kg p.o. + cyclophosphamide 250 mg/kg i.p.
[9] = male mice, 10 mg/kg p.o. + cyclophosphamide 250 mg/kg i.p.
[10] = male mice, 50 mg/kg p.o. + cyclophosphamide 250 mg/kg i.p.
[11] = female mice, 3-OH-DBP 2 and 10 mg/kg, 3,8-(OH)2-DBP 10 and 50 mg/kg, combined 12 and 60 mg/kg
[12] = male mice, 3-OH-DBP 10 mg/kg, 3,8-(OH)2-DBP 50 mg/kg, combined 60 mg/kg

O=c1oc2cc(O)ccc2c2ccc(O)cc12 [3,8-(OH)2-DBP, 3,8-dihydroxy-dibenzo-alpha-pyrone]
% Cell Viability of splenocytes [1]: 54.90 ± 5.01%
NBT reduction compared with cyclophosphamide treated mice ([2]; female mice, 3-OH-DBP 10 mg/kg): significantly (p<0.05, p<0.01, p<0.001) increased
O.D. (515 nm) Day 7, NBT reduction of peritoneal macrophages [2, 7]: 0.159 ± 0.02***
O.D. (515 nm) Day 7, NBT reduction of peritoneal macrophages [2, 8]: 0.294 ± 0.008*,###
NBT reduction compared with vehicle control ([2]; female mice, 3,8-(OH)2-DBP 10 and 50 mg/kg): significantly (p<0.05, p<0.01, p<0.001) decreased
NBT reduction compared with cyclophosphamide treated mice ([2]; male mice, NBT reduction capacity increased): significantly (p<0.05, p<0.01, p<0.001) reversed
O.D (515 nm) Day 7, NBT reduction of peritoneal macrophages [2, 9]: 0.294 ± 0.04499***
O.D (515 nm) Day 7, NBT reduction of peritoneal macrophages [2, 10]: 0.476 ± 0.07172##
NBT reduction compared with vehicle control ([2]; male mice, 3,8-(OH)2-DBP 10 mg/kg): significantly (p<0.01, p<0.001) decreased
body weight Day 7 in comparison to Day 0 [3]: significantly (p<0.05) decreased
feed intake Day 7 in comparison to Day 0 [3]: significantly (p<0.05, p<0.01) decreased
feed intake compared to vehicle control [3]: significantly (p<0.05, p<0.01) decreased
water intake compared with cyclophosphamide treated mice [3]: significantly (p<0.001) decreased
water intake compared with vehicle control [3]: significantly (p<0.001) decreased
water intake compared with vehicle control and cyclophosphamide treated mice [3]: significantly (p<0.05, p<0.001) decreased
OD (515 nm), NBT reduction assay in peritoneal macrophages [4]: 0.144 ± 0.010^
splenocyte viability compared with cyclophosphamide treated mice [5, 11]: significantly (p<0.05, p<0.01, p<0.001) increased
% Viability Day7, splenocyte viability [5, 7]: 89.50 ± 2.30# %
% Viability Day7, splenocyte viability [5, 8]: 90.87 ± 1.98## %
restoration of splenocyte viability ([5]; male mice, 50 mg/kg 3,8-(OH)2-DBP (Group VII), 60 mg/kg DBP combination (Group VIII)): restored
splenocyte viability compared with cyclophosphamide treated mice [5, 12]: significantly higher
% Viability Day7, splenocyte viability [5, 9]: 68.69 ± 2.21*** %
% Viability Day7, splenocyte viability [5, 10]: 90.14 ± 0.36## %
splenocyte viability compared with vehicle control ([5]; male mice, cyclophosphamide, 2 mg/kg 3-OH-DBP, 10 mg/kg 3,8-(OH)2-DBP, 12 mg/kg combined): similarly decreased
peritoneal macrophage viability compared with cyclophosphamide treated mice [6, 11]: significantly (p<0.05, p<0.01) increased
% Viability Day 7, peritoneal macrophage viability [6, 7]: 65.78 ± 2.38** %
% Viability Day 7, peritoneal macrophage viability [6, 8]: 75.27 ± 0.53^# %
peritoneal macrophage viability compared with cyclophosphamide treated mice [6, 12]: significantly (p<0.05, p<0.01) increased
% Viability Day 7, peritoneal macrophage viability [6, 9]: 60.34 ± 1.84%
% Viability Day 7, peritoneal macrophage viability [6, 10]: 70.91 ± 1.24# %
peritoneal macrophage viability compared with vehicle control ([6]; male mice, cyclophosphamide, 3-OH-DBP 2 mg/kg, 3,8-(OH)2-DBP 10 mg/kg): significantly (p<0.05) decreased
